Measurements reported in patent publication US7220824B1, “Integrin-mediated drug targeting” (Bayer Aktiengesellschaft, priority 2000, dated 2007).
Like-named read-outs stand apart in the source and are kept apart here.

What was measured:
[1] = tested on: hemopoietic stem cells (bone marrow cells); assay: CSF-induced proliferation of hemopoietic stem cells; type: cell-based, mice; details: Bone marrow cell, 168 h
Description: Bone marrow cells are flushed out of the femur of mice. 10^5 cells are incubated in McCoy 5A medium (0.3% agar) together with recombinant murine GM-CSF (Genzyme; parent cell colony formation) and the substances (10^−4 to 100 μg/ml) at 37° C. and 7% CO2. 7 days later, the colonies (<50 cells) and clusters (17–50 cells) are counted.

[2] = molecular target: T1, αvβ3 receptor (αvβ3 from human A375 cells) (Homo sapiens, UniProt P05106+P06756); assay: αvβ3 binding test (echistatin displacement, WGA SPA beads)
T1 construct: αvβ3 from human A375 cells was purified analogously to a procedure which was described by Wong et al; endogenous in cells; host or cells: human A375 cells; the receptor was purified from the cells and used detergent-solubilised (n-octyl-glucopyranoside)
T1 sequence (P06756 31-889 limits assumed): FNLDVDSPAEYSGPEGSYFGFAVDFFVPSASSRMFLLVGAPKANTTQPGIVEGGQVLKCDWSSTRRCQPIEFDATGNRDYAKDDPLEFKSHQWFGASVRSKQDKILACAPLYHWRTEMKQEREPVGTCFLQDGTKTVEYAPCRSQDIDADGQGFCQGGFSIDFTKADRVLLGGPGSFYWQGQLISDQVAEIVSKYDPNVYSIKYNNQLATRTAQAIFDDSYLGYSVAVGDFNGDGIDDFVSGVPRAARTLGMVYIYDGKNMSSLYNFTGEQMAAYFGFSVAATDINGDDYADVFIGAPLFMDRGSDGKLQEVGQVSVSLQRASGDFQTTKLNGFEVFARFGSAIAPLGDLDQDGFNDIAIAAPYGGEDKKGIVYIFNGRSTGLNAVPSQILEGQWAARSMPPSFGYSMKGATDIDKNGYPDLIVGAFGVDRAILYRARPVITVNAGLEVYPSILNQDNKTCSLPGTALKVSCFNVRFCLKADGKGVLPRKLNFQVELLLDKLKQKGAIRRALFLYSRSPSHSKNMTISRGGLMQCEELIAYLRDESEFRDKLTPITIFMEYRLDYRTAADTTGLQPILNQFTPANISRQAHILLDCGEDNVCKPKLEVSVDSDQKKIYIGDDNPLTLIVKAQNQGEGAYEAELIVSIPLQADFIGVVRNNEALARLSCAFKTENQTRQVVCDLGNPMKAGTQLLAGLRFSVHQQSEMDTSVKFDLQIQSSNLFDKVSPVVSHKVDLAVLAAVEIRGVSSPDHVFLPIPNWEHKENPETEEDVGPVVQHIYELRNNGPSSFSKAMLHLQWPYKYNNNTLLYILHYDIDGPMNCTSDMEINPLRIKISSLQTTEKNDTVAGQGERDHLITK
T1 sequence (P06756 891-1048 partner limits assumed): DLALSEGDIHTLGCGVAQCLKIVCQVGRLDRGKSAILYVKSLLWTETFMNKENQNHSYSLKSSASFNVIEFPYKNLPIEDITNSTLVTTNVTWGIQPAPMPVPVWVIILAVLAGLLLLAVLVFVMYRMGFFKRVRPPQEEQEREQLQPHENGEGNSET
T1 sequence (P05106 27-788): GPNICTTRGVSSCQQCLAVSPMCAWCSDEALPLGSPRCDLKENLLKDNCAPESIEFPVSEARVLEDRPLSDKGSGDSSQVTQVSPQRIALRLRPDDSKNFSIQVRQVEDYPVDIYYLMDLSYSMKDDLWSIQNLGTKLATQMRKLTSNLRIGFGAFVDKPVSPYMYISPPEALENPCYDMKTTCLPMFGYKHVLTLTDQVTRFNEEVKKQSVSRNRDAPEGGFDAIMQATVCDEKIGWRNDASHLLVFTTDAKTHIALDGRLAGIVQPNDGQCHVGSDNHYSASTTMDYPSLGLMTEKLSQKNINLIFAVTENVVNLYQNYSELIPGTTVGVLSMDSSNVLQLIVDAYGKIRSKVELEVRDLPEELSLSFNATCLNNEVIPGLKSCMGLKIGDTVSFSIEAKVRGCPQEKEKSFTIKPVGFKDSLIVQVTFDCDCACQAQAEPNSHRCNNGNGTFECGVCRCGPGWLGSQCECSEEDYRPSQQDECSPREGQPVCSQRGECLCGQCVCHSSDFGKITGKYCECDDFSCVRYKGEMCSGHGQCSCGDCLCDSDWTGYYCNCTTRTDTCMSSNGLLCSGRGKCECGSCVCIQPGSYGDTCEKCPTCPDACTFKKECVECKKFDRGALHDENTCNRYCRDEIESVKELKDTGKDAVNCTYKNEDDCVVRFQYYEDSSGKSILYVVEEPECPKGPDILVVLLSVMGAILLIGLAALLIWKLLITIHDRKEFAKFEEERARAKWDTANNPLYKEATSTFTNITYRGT
Description: αvβ3 from human A375 cells was purified analogously to a procedure which was described by Wong et al. (Molecular Pharmacology, 50, 529–537 (1996)). In each case, 10 μl of αvβ3 (5 ng) in TBS pH 7.6, 2 mM CaCl2, 1 mM MgCl2, 1% n-octyl-glucopyranoside (Sigma); 10 μl of test substance in TBS pH 7.6, 0.1% DMSO and 45 μl of TBS pH 7.6, 2 mM CaCl2, 1 mM MgCl2, 1 mM MnCl2 were incubated at room temperature for 1 h. In each case, 25 μl of WGA SPA beads (Amersham, 4 mg/ml) and 10 μl of echistatin ([…], Amersham, chloramine-T labelled) were then added. After 16 hours at room temperature, the samples were measured in a scintillation measuring apparatus (Wallac 1450).

BT20 = assay: Growth inhibition test (MTT), cytotoxic action on tumour cell lines; type: cell-based; details: Homo sapiens, BT-20, 144 h, read-out: IC50 values of the cytotoxic action on tumour cell lines, BT20
Description: (§1) The human large intestine cell lines SW 480 and HT29 (ATCC No. CCL 228 and HTB38), the human breast cell lines MDA-MB 231, MCF-7 and BT20 (ATCC No. HTB-, 26, 22 and 23) and the mouse melanoma cell line B16F 10 (CRL 6475) were grown to confluence in Roux dishes in RPMI 1640 medium with addition of 10% FCS. They were then trypsinized and taken up in RPMI plus 10% FCS to a cell count of 50,000 cells or, for B16F10, 20,000 cells per ml. 100 μl of cell suspension/well were added to a 96 microwell plate and incubated at 37° C. for 1 day in a CO2 incubator. A further 100 μl of RPMI medium and 1 μl of DMSO were then added with the test substances. The growth was checked after day 6. For this, 25 μl of MTT solution (3-(4,5-dimethylthiazol-2-yl)-2,5-diphenyltetrazolium bromide) was added to each well at a starting concentration of 5 mg/ml of H2O. The plate was incubated at 37° C. for 5 hours in a CO2 incubator. The medium was then aspirated and 100 μl of i-propanol/well were added. After shaking with 100 μl of H2O for 30 min, the extinction was measured at 595-nm using a Multiplate Reader (BIO-RAD 3550-UV).
(§2) The cytostatic action is indicated in Table 2 as an IC50 value, in each case for the individual cell lines.

MDA-MB 231 = assay: as above; type: cell-based; details: Homo sapiens, MDA-MB-231, 144 h, read-out: IC50 values of the cytotoxic action on tumour cell lines, MDA-MB 231
Description: as §1, §2

SW480 = assay: as above; type: cell-based; details: Homo sapiens, SW480, 144 h, read-out: IC50 values of the cytotoxic action on tumour cell lines, SW480
Description: as §1, §2

B16F10 = assay: as above; type: cell-based; details: Mus musculus, B16-F10, 144 h, read-out: IC50 values of the cytotoxic action on tumour cell lines, B16F10
Description: as §1, §2

HT 29 = assay: as above; type: cell-based; details: Homo sapiens, HT-29, 144 h, read-out: IC50 values of the cytotoxic action on tumour cell lines, HT 29
Description: as §1, §2

MCF7 = assay: as above; type: cell-based; details: Homo sapiens, MCF7, 144 h, read-out: IC50 values of the cytotoxic action on tumour cell lines, MCF7
Description: as §1, §2

[3] = tested on: human breast cancer xenograft MX1; assay: In-vivo inhibition of tumour growth using a nude mouse model; parameters: species or system athymic nude mice (NMRI nu/nu strain); details: subcutaneous MX1 xenograft in nude mice; 40 mg/kg given on day 1–3 and 14–16; T/C in percent
Excerpt: In all in-vivo experiments for investigating the inhibition of tumour growth, athymic nude mice (NMRI nu/nu strain) were used. The tumour was developed by serial passage in nude mice. The human origin of the tumour was confirmed by isoenzymatic and immunohistochemical methods.
The tumour was implanted subcutaneously in both flanks of nu/nu nude mice 6 to 8 weeks old. The treatment was started, depending on the doubling time, as soon as the tumours had reached a diameter of 5–7 mm. The mice were assigned to the treatment group or the control group (5 mice per group having 8–10 assessable tumours) by randomization. The individual tumours of the control group all grew progressively.
The size of the tumours was measured in two dimensions by means of a slide gauge. The tumour volume, which correlated well with the cell count, was then used for all assessments. The volume was calculated according to the formula “length×breadth×breadth/2” ([a×b^2]/2, a and b represent two diameters arranged at right angles).
The values of the relative tumour volume (RTV) were calculated for each individual tumour by dividing the tumour size on day X with the tumour size on day 0 (at the time of randomization). […]
The inhibition of the increase of the tumour volume (tumour volume of the test group/control group, T/C, in percent) was the final measured value. […]

[4] = Mus musculus, read-out: IC50, CSF-induced proliferation of hemopoietic stem cells, mouse bone marrow cells, recombinant murine GM-CSF, 7 days, colony count
[5] = αvβ3 purified from human A375 cells, labelled echistatin, read-out: IC50 values of the binding to the αvβ3 receptor

CCCNC(=O)Nc1cccc(S(=O)(=O)Nc2cccc(C(CC(=O)O)NC(=O)CCCC(=O)NCC(=O)N[C@@H](CC(C)C)C(=O)O[C@]3(CC)C(=O)OCc4c3cc3n(c4=O)Cc4cc5ccccc5nc4-3)c2)c1 (stereo partly drawn) [Example 3.20] showed an IC50 [1, 4] of 0.1 µg/mL and an IC50 [2, 5] of 265 nM.
In the case of CC[C@@]1(OC(=O)[C@@H](NC(=O)[C@H](Cc2cnc[nH]2)NC(=S)Nc2cccc(C(CC(=O)O)NS(=O)(=O)c3ccc(-c4cccc(NC(=O)Nc5nc6ccccc6[nH]5)c4)cc3)c2)C(C)C)C(=O)OCc2c1cc1n(c2=O)Cc2cc3ccccc3nc2-1 (stereo partly drawn) [Example 3.8], the IC50 (BT20) is reported as 400 nM, the IC50 (MDA-MB 231) is reported as 200 nM and the IC50 (SW480) is reported as 350 nM. For the same compound, the IC50 (B16F10) was 800 nM, the IC50 (HT 29) was 200 nM and the IC50 (MCF7) was 200 nM. For the same compound, the IC50 [1, 4] was 0.025 µg/mL, the “optimal T/C (tumour volume of the test group/control group)” value [3] was 15.9 and the IC50 [2] was 25 nM.
In the case of CCCNC(=O)Nc1cccc(S(=O)(=O)Nc2cccc(C(CC(=O)O)NC(=O)CCCC(=O)N3CCC[C@H]3C(=O)N[C@@H](CC(C)C)C(=O)NCC(=O)N[C@@H](CC(C)C)C(=O)O[C@]3(CC)C(=O)OCc4c3cc3n(c4=O)Cc4cc5ccccc5nc4-3)c2)c1 (stereo partly drawn) [Example 3.23], the IC50 [1, 4] is reported as 0.006 µg/mL and the IC50 [2] is reported as 355 nM.
With CCCNC(=O)Nc1cccc(S(=O)(=O)Nc2cccc(C(CC(=O)O)NC(=O)CCCC(=O)NCC(=O)N[C@@H](CC(C)C)C(=O)N[C@H](C(=O)O[C@]3(CC)C(=O)OCc4c3cc3n(c4=O)Cc4cc5ccccc5nc4-3)C(C)C)c2)c1 (stereo partly drawn) [Example 3.22] the IC50 [1, 4] was 0.006 µg/mL and the IC50 [2, 5] was 531 nM.
CCCNC(=O)Nc1cccc(S(=O)(=O)Nc2cccc(C(CC(=O)O)NC(=O)CCCC(=O)N[C@@H](CC(C)C)C(=O)NCC(=O)N[C@@H](CC(C)C)C(=O)O[C@]3(CC)C(=O)OCc4c3cc3n(c4=O)Cc4cc5ccccc5nc4-3)c2)c1 (stereo partly drawn) [Example 3.21] showed an IC50 [1, 4] of 0.08 µg/mL and an IC50 [2, 5] of 549 nM.
In the case of CC[C@@]1(OC(=O)[C@@H](NC(=O)[C@H](Cc2c[nH]cn2)NC(=S)Nc2ccc(NC(=O)NC(CC(=O)O)c3cccc(NS(=O)(=O)c4cccc(NC(=N)N)c4)c3)cc2)C(C)C)C(=O)OCc2c1cc1n(c2=O)Cc2cc3ccccc3nc2-1 (stereo partly drawn) [Example 3.5], the IC50 (BT20) is reported as 500 nM, the IC50 (MDA-MB 231) is reported as 150 nM and the IC50 (SW480) is reported as 200 nM. For the same compound, the IC50 (B16F10) was 900 nM, the IC50 (HT 29) was 150 nM and the IC50 (MCF7) was 150 nM. The IC50 [1, 4] was 0.02 µg/mL and the IC50 [2] was 36 nM.
Compound CCCNC(=O)Nc1cccc(S(=O)(=O)Nc2cccc(C(CC(=O)O)NC(=S)Nc3cccc4nc5c(cc34)Cn3c-5cc4c(c3=O)COC(=O)[C@]4(O)CC)c2)c1 (stereo partly drawn) [Example 3.16] has an IC50 (BT20) of 700 nM, an IC50 (MDA-MB 231) of 1000 nM and an IC50 (SW480) of 500 nM. For the same compound, the IC50 (B16F10) was 1000 nM, the IC50 (HT 29) was 100 nM and the IC50 (MCF7) was 300 nM. The IC50 [2, 5] was 51 nM.
CC[C@@]1(OC(=O)[C@@H](NC(=O)CC[C@H](NC(=O)CC(NC(=O)CNC(=O)c2cccc(NC(=N)N)c2)c2ccccc2)C(=O)O)C(C)C)C(=O)OCc2c1cc1n(c2=O)Cc2cc3ccccc3nc2-1 (stereo partly drawn) [Example 1.2] showed an IC50 (BT20) of 100 nM, an IC50 (MDA-MB 231) of 20 nM and an IC50 (SW480) of 600 nM. The IC50 (B16F10) was 4000 nM, the IC50 (HT 29) was 500 nM and the IC50 (MCF7) was 60 nM. For the same compound, the IC50 [2, 5] was 679 nM.
Work on CC[C@@]1(OC(=O)[C@@H](NC(=O)CNC(=O)CCCC(=O)NC(CC(=O)O)c2cccc(NS(=O)(=O)c3cccc(NC(=N)N)c3)c2)C(C)C)C(=O)OCc2c1cc1n(c2=O)Cc2cc3ccccc3nc2-1 (stereo partly drawn) [Example 3.19] yielded an IC50 (BT20) of 4000 nM, an IC50 (MDA-MB 231) of 2000 nM and an IC50 (SW480) of 1500 nM. The IC50 (B16F10) was 6000 nM, the IC50 (HT 29) was 500 nM and the IC50 (MCF7) was 5000 nM. For the same compound, the IC50 [2, 5] was 48 nM.
Work on CC[C@@]1(OC(=O)CCC(=O)NC(CC(=O)O)c2cccc(NS(=O)(=O)c3cccc(NC(=N)N)c3)c2)C(=O)OCc2c1cc1n(c2=O)Cc2cc3ccccc3nc2-1 (stereo partly drawn) [Example 3.18] yielded an IC50 (BT20) of 900 nM, an IC50 (MDA-MB 231) of 500 nM and an IC50 (SW480) of 300 nM. The IC50 (B16F10) was 1000 nM, the IC50 (HT 29) was 180 nM and the IC50 (MCF7) was 600 nM. It also gave an IC50 [2] of 79 nM.
With CCCNC(=O)Nc1cccc(S(=O)(=O)Nc2cccc(C(CC(=O)O)NC(=O)Nc3ccc(NC(=S)N[C@@H](Cc4c[nH]cn4)C(=O)N[C@H](C(=O)O[C@]4(CC)C(=O)OCc5c4cc4n(c5=O)Cc5cc6ccccc6nc5-4)C(C)C)cc3)c2)c1 (stereo partly drawn) [Example 3.13] the IC50 (BT20) was 150 nM, the IC50 (MDA-MB 231) was 200 nM and the IC50 (SW480) was 200 nM. The IC50 (B16F10) was 200 nM, the IC50 (HT 29) was 90 nM and the IC50 (MCF7) was 100 nM. It also gave an IC50 [1, 4] of 0.04 µg/mL and an IC50 [2] of 14 nM.
For CC[C@@]1(OC(=O)[C@@H](NC(=O)[C@H](Cc2c[nH]cn2)NC(=S)Nc2ccc(S(=O)(=O)NC(CC(=O)O)c3cccc(NS(=O)(=O)c4cccc(NC(=N)N)c4)c3)cc2)C(C)C)C(=O)OCc2c1cc1n(c2=O)Cc2cc3ccccc3nc2-1 (stereo partly drawn) [Example 3.2], the IC50 (BT20) was 200 nM, the IC50 (MDA-MB 231) was 200 nM and the IC50 (SW480) was 400 nM. The IC50 (B16F10) was 1000 nM, the IC50 (HT 29) was 200 nM and the IC50 (MCF7) was 200 nM. For the same compound, the IC50 [2] was 45 nM.
Work on CC[C@@]1(O)C(=O)OCc2c1cc1n(c2=O)Cc2cc3ccccc3nc2-1 [Camptothecin, 20(S)-Camptothecin, reference compound] yielded an IC50 ([1]; mouse bone marrow cells, recombinant murine GM-CSF, 7 days, colony count, read-out: IC50, CSF-induced proliferation of hemopoietic stem cells) of 0.0003 µg/mL.
